Source: ChEMBL document CHEMBL5291721, “A preclinical secondary pharmacology resource illuminates target-adverse drug reaction associations of marketed drugs” (Nat Commun, 2023)

Assays:
Prothrombin = Prothrombin (Homo sapiens, UniProt P00734); assay type: functional
Cannabinoid receptor 1 = Cannabinoid receptor 1 (Homo sapiens, UniProt P21554); assay type: functional, cell-based
[1] = biological target: T1, Neuropeptide Y receptor type 1 (Homo sapiens, UniProt P25929)
T1 sequence (P25929 whole entry): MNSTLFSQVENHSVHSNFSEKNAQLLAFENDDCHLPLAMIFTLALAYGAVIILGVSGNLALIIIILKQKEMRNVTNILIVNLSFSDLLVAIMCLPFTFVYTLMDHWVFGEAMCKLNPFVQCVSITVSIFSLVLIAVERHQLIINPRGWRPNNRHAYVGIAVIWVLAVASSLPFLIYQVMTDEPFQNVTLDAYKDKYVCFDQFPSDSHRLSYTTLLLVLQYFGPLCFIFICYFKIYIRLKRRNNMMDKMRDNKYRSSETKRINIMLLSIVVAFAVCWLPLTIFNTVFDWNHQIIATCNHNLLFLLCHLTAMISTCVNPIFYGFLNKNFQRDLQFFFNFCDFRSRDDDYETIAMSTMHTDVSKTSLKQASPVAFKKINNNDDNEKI

B2 bradykinin receptor = biological target: T2, B2 bradykinin receptor (Homo sapiens, UniProt P30411)
T2 sequence (P30411 whole entry): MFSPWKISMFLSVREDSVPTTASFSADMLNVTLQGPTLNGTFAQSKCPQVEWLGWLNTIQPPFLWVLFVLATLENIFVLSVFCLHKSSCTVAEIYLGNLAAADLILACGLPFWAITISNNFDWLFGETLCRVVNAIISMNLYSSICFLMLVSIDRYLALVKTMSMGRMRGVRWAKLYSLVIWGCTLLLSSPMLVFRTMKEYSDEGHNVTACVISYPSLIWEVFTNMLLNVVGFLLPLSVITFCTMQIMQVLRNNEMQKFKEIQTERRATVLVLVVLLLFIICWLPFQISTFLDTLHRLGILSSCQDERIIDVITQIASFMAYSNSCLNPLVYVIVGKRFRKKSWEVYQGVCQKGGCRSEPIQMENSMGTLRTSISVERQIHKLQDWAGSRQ

Histamine H3 receptor = Histamine H3 receptor (Homo sapiens, UniProt Q9Y5N1)
Chain of Histamine H3 receptor (Q9Y5N1 whole entry): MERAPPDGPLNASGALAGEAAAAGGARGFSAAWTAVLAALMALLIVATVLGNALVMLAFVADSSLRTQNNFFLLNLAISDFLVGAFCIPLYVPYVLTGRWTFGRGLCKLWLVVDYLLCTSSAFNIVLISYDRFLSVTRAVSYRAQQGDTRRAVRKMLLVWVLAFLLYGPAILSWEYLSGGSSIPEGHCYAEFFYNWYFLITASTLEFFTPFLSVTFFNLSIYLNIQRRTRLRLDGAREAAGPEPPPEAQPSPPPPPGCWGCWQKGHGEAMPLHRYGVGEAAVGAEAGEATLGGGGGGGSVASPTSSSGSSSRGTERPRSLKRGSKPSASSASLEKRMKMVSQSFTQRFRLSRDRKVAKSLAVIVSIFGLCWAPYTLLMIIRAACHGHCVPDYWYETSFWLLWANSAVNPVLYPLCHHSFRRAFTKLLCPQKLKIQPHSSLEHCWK

Endothelin-1 receptor = biological target: T3, Endothelin-1 receptor (Homo sapiens, UniProt P25101)
T3 sequence (P25101 whole entry): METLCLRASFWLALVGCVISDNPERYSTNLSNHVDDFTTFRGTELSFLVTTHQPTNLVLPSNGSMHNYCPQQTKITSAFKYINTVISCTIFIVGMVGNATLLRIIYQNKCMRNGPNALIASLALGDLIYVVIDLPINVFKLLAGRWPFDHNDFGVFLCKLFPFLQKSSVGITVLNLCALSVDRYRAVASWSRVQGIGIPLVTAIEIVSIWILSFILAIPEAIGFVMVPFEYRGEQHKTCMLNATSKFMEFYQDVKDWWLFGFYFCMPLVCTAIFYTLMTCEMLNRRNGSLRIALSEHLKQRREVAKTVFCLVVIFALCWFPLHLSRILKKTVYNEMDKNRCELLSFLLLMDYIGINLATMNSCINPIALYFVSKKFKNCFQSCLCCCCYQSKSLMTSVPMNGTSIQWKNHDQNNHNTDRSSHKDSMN

Glucocorticoid receptor = biological target: T4, Glucocorticoid receptor (Homo sapiens, UniProt P04150)
T4 sequence (P04150 whole entry): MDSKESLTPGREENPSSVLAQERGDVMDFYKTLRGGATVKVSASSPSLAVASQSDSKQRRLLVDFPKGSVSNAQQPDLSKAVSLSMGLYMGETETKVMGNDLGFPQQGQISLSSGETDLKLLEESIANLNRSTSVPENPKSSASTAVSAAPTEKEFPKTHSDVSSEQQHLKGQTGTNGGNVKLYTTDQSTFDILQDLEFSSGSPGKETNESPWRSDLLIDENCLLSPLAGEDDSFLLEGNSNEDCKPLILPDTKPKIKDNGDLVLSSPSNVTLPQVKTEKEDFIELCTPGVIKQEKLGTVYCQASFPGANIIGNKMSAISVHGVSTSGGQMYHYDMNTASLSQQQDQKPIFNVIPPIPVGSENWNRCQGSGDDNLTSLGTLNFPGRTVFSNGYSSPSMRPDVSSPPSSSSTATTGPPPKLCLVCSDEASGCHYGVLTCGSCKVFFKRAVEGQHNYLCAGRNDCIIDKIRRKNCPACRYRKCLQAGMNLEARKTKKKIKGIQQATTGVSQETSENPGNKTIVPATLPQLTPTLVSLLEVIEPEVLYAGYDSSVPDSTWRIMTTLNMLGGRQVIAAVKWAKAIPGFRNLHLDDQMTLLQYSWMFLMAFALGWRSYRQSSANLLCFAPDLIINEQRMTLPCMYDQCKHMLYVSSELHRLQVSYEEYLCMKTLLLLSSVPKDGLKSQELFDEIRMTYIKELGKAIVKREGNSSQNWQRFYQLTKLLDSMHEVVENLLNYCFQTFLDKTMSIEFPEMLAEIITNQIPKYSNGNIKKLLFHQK

Histamine H1 receptor = Histamine H1 receptor (Homo sapiens, UniProt P35367)
Chain of Histamine H1 receptor (P35367 whole entry): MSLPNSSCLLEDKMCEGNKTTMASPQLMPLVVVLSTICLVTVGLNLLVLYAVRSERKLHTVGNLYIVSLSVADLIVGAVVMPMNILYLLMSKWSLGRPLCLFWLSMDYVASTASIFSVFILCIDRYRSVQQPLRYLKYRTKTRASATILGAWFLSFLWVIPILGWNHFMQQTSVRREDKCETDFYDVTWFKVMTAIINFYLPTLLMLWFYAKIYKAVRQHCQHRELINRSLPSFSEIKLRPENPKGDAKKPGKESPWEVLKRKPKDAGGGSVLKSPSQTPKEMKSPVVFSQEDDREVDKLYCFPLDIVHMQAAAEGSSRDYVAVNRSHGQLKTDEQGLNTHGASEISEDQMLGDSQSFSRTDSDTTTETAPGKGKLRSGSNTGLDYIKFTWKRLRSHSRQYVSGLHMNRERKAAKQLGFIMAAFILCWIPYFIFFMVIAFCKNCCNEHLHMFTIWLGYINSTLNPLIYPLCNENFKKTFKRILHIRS
Also: assay procedure not described here.

Chain of Cannabinoid receptor 1 (P21554 whole entry): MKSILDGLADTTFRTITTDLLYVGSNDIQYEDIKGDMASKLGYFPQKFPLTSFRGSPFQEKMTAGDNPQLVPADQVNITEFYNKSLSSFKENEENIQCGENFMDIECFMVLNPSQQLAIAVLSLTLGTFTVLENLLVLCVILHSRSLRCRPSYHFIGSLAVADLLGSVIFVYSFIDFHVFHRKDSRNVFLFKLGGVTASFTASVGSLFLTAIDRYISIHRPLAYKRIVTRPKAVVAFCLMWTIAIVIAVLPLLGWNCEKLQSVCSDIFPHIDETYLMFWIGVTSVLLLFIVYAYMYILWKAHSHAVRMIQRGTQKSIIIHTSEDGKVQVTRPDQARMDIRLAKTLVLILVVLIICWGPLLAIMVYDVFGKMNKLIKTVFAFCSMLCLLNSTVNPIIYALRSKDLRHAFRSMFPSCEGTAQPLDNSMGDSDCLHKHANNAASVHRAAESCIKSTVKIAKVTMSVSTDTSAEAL

C#C[C@]1(O)CC[C@H]2[C@@H]3CCC4=CC(=O)CC[C@@H]4[C@H]3CC[C@@]21CC [LEVONORGESTREL]
AC50 (Prothrombin): > 30 µM

OC[C@@H](O)[C@@H](O)[C@H](O)[C@H](O)CO [MANNITOL]
AC50 (Prothrombin): > 30 µM

CN1CCCC(CN2c3ccccc3Sc3ccccc32)C1 (configuration not stated) [MEPAZINE]
AC50 (Prothrombin): > 30 µM

Sc1ncnc2nc[nH]c12 [MERCAPTOPURINE ANHYDROUS]
AC50 (Prothrombin): > 30 µM

C[N+]1(C)[C@@H]2C[C@@H](OC(=O)[C@H](CO)c3ccccc3)C[C@H]1[C@@H]1O[C@@H]12 [METHSCOPOLAMINE]
AC50 (Prothrombin): > 30 µM

CC(=O)Oc1c(C)cc(OCC(O)CNC(C)C)c(C)c1C (configuration not stated) [METIPRANOLOL]
AC50 (Prothrombin): > 30 µM

Cc1cccc(C)c1OCC(C)N (configuration not stated) [MEXILETINE]
AC50 (Cannabinoid receptor 1): > 30 µM | AC50 [1]: > 30 µM | AC50 (B2 bradykinin receptor): > 30 µM | AC50 (Histamine H3 receptor): > 30 µM | AC50 (Endothelin-1 receptor): > 30 µM

NC(=O)c1ncn([C@@H]2O[C@H](CO)[C@@H](O)[C@H]2O)c1O [MIZORIBINE]
AC50 (Glucocorticoid receptor): > 30 µM | AC50 (Cannabinoid receptor 1): > 30 µM | AC50 [1]: > 30 µM | AC50 (B2 bradykinin receptor): > 30 µM | AC50 (Histamine H1 receptor): > 30 µM | AC50 (Histamine H3 receptor): > 30 µM | AC50 (Endothelin-1 receptor): > 30 µM

O=C1CC[C@@]2(O)[C@H]3Cc4ccc(O)c5c4[C@@]2(CCN3CC2CC2)[C@H]1O5 [NALTREXONE]
AC50 (Prothrombin): > 30 µM

CC(N/C(=N\C#N)Nc1ccncc1)C(C)(C)C (configuration not stated) [PINACIDIL ANHYDROUS]
AC50 (Prothrombin): > 30 µM

CC(O)CO (configuration not stated) [PROPYLENE GLYCOL]
AC50 (Prothrombin): > 30 µM

CN(C)C(=O)Oc1ccc[n+](C)c1 [PYRIDOSTIGMINE]
AC50 (Prothrombin): > 30 µM

O=C(NC[C@H]1CN(c2ccc(N3CCOCC3=O)cc2)C(=O)O1)c1ccc(Cl)s1 [RIVAROXABAN]
AC50 (Cannabinoid receptor 1): > 30 µM | AC50 (Histamine H1 receptor): > 30 µM

Cc1cc2c(cc1CC(=O)c1sccc1S(=O)(=O)Nc1onc(C)c1Cl)OCO2 [SITAXENTAN]
AC50 (Prothrombin): > 30 µM

CC(C)OC(=O)[C@H](C)N[P@](=O)(OC[C@H]1O[C@@H](n2ccc(=O)[nH]c2=O)[C@](C)(F)[C@@H]1O)Oc1ccccc1 [SOFOSBUVIR]
AC50 (Prothrombin): > 30 µM

CS(=O)(=O)c1ccc([C@@H](O)[C@@H](CO)NC(=O)C(Cl)Cl)cc1 [THIAMPHENICOL]
AC50 (Glucocorticoid receptor): > 30 µM | AC50 (Cannabinoid receptor 1): > 30 µM | AC50 [1]: > 30 µM | AC50 (Prothrombin): > 30 µM | AC50 (B2 bradykinin receptor): > 30 µM | AC50 (Histamine H3 receptor): > 30 µM | AC50 (Endothelin-1 receptor): > 30 µM

Cc1ccc(O)c2ncccc12 [TILIQUINOL]
AC50 (Prothrombin): > 30 µM

CC(=O)OC[C@H]1O[C@@H](n2ccc(=O)[nH]c2=O)[C@H](OC(C)=O)[C@@H]1OC(C)=O [URIDINE TRIACETATE]
AC50 (Prothrombin): > 30 µM

CCCS(=O)(=O)Nc1ccc(F)c(C(=O)c2c[nH]c3ncc(-c4ccc(Cl)cc4)cc23)c1F [VEMURAFENIB]
AC50 (Glucocorticoid receptor): > 30 µM | AC50 (Cannabinoid receptor 1): > 30 µM | AC50 [1]: > 30 µM | AC50 (B2 bradykinin receptor): > 30 µM | AC50 (Histamine H1 receptor): > 30 µM | AC50 (Histamine H3 receptor): > 30 µM | AC50 (Endothelin-1 receptor): > 30 µM

OCc1cc([C@@H](O)CNCCCCCCOCCOCc2c(Cl)cccc2Cl)ccc1O [VILANTEROL]
AC50 (Cannabinoid receptor 1): > 30 µM | AC50 (Histamine H1 receptor): > 30 µM | AC50 (Histamine H3 receptor): > 30 µM | AC50 (Endothelin-1 receptor): > 30 µM

CCOC(=O)N[C@@H]1CC[C@@H]2[C@@H](C1)C[C@H]1C(=O)O[C@H](C)[C@H]1[C@H]2/C=C/c1ccc(-c2cccc(F)c2)cn1 [VORAPAXAR]
AC50 (Prothrombin): > 30 µM
